Publication PMC11151873, “Cathelicidin-HG Alleviates Sepsis-Induced Platelet Dysfunction by Inhibiting GPVI-Mediated Platelet Activation” (Research, 2024)
Each block holds one compound with its values, some of them ahead of it.

Columns and labels:
[1] = molecular target: platelet glycoprotein VI (mouse (endogenous in mouse platelets)) (UniProt P0C191)
[2] = tested on: FeCl3-injured mice; assay: FeCl3-induced carotid artery thrombosis model; assay type: in vivo, Male BALB/c mice; settings: FeCl3 10% (w/v), i.v. 30 min before injury, Cath-HG 5 mg/kg or heparin 1,000 U/kg
Description: The carotid artery thrombus experiment was carried out as described by Zhang et al. […] Anesthesia was induced with 2.0% isoflurane before the left carotid artery was exposed through a midline neck incision. A small piece of filter paper (2 mm × 1 mm) saturated with 10% (w/v) FeCl3 solution was placed on the carotid artery for 5 min to induce thrombus formation. The filter paper was then removed, and the artery was washed with saline. The carotid blood flow and occlusion time were measured to evaluate thrombus formation with the RFLSI Pro+ laser speckle blood flow imaging system (RWD, Shenzhen, China).

[3] = tested on: lactate dehydrogenase (LDH); assay: Serum LDH activity in CLP mice; assay type: in vivo, Male BALB/c mice; settings: i.p. 2 h after CLP; Cath-HG 1.25, 2.5, 5 mg/kg or clopidogrel 20 mg/kg; n = 4
Description: (§1) CLP-induced sepsis was performed based on our previous method with minor modifications. Briefly, under sterile conditions, the cecum of anesthetized mice was exposed and tightly ligated approximately 1 cm from the end. Then, the cecum was punctured twice at different mid-points with a 22-gauge needle, gently squeezed to extrude a small amount of fecal matter, returned into the peritoneal cavity which was sutured. Finally, the mice underwent resuscitation through the administration of 1 ml of preheated physiological saline via subcutaneous injection. […] Clopidogrel (20 mg/kg) was administered as a positive control, and blank control mice underwent sham surgery and received saline. All mice were monitored for 72 h after the induction of CLP. Another group of mice underwent the same procedure described above. Twenty-four hours after the surgery, the mice were euthanized, and blood, heart, liver, spleen, lung, and kidney samples were collected for subsequent analysis.
For platelet count determination, blood was collected in EDTA and analyzed using a PE-6800 Fully Auto Hematology Analyzer (Prokan, Shenzhen, China). […] TPO levels were determined by ELISA, and LDH activity was measured using an LDH assay kit.

[4] = tested on: CLP septic mice; assay: Bacterial loads in organs of CLP mice; assay type: in vivo, Male BALB/c mice; settings: heart, liver, spleen, lung, kidney; 24 h after CLP; i.p. Cath-HG 1.25, 2.5, 5 mg/kg or clopidogrel 20 mg/kg
Description: as §1

[5] = tested on: CLP septic mice; assay: Microvascular thrombosis by fluorescent bead imaging in CLP mice; assay type: in vivo, Male BALB/c mice; settings: lungs, liver, kidneys; i.p. 2 h after CLP; Cath-HG 1.25, 2.5, 5 mg/kg or clopidogrel 20 mg/kg
Description: as §1

[6] = tested on: phosphorylation of Src, Syk, PLCγ2, and Akt; assay: Western blot: phosphorylation of GPVI downstream proteins in collagen-stimulated platelets; assay type: cell-based, mice; settings: washed platelets, Cath-HG 5, 10, 20 μM 5 min, n = 3, or dasatinib (Src inhibitor)
Description: The platelets were lysed with radioimmunoprecipitation assay buffer containing protease inhibitor and phosphatase inhibitor cocktails, and the protein concentration was determined with a bicinchoninic acid protein assay kit before SDS-polyacrylamide gel electrophoresis separation and polyvinylidene difluoride (PVDF) membrane transferring. The membranes were incubated with corresponding primary antibodies overnight at 4 °C and appropriate horseradish peroxidase-conjugated secondary antibodies at room temperature for 1 h after being blocked with 5% skimmed milk at room temperature for 1 h. Finally, the results were recorded using a FluorChem R chemiluminescence imaging system (ProteinSimple, CA, USA) and analyzed using ImageJ software.

Sequence of UniProt P0C191 (P0C191 22-313): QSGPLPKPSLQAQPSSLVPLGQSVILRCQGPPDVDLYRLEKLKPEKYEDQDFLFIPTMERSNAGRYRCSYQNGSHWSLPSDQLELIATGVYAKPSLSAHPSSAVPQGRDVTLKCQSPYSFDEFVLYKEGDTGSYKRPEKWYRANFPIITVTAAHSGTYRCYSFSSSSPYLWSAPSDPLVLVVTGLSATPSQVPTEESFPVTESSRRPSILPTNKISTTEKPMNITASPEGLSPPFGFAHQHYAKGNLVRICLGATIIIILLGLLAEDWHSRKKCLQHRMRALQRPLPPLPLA

- inhibition of platelet aggregation in platelet-rich plasma induced by the GPVI-specific agonist convulxin (0.6 nM); Cath-HG 5, 10 and 20 μM, value at 20 μM [1]: 63.2%
Compound: Cathelicidin-HG (peptide)

Compound: heparin
- carotid blood flow ([2]; laser speckle imaging): significantly increased blood flow
- mean occlusion time of carotid artery ([2]; n = 3, mean ± SD, control 2.9 ± 0.3 min): 5.4 ± 0.3 min

Compound: COC(=O)[C@H](c1ccccc1Cl)N1CCc2sccc2C1 [clopidogrel]
- LDH activity in serum [3]: significantly decreased after Cath-HG or clopidogrel treatment
- bacterial load in organs [4]: reduced the bacterial burden in the organs of CLP mice
- microvascular thrombosis (fluorescence of beads) [5]: reduced the fluorescence levels of lungs, liver, and kidneys

Compound: Cc1nc(Nc2ncc(C(=O)Nc3c(C)cccc3Cl)s2)cc(N2CCN(CCO)CC2)n1 [dasatinib]
- collagen-induced phosphorylation of GPVI downstream proteins (Src, Syk, PLCγ2, Akt) [6]: completely inhibited
